Results published in patent publication US20050038058A1, “Novel compounds and methods for therapy” (Institute of Organic Chemistry and Biochemistry, priority 2001, published 2005).
In brackets after ≈: the same amount, converted by molar mass. Read-outs that look alike come from different tables or passages of the source.

Legend:
Format in all cases: cell-based
[1] = test system: HIV-1(Ba-L); assay: HIV-1(BaL) p24 antigen production in human primary macrophages (M/M); conditions: Table 2; for EC50: Human immunodeficiency virus 1, BAL, Primary macrophage
From the text: (§1) Viruses. The origins of MSV, HIV type 1 (HIV-1) (strain IIIB and Ba-L), HIV-2 (strain ROD) and FIV (strain Petaluma) have been described previously (Balzarini et al., AIDS 5: 21-28, 1991; De Clercq et al., Proc. Soc. Exp. Biol. Med. 137:590-594, 1971; Egberink et al., Proc. Natl. Acad. Sci. 87:3087-3091, 1990; Hartmann et al., Antiviral Chem. Chemother. 5:13-19, 1994; Popovic et al., Science 224:497-500, 1984). HIV-1(IIIB) and HIV-2(ROD) stocks were obtained from supernatants of virus-infected MT-4 cell cultures. HIV-1BaL was expanded in human primary M/M, whose supernatants were collected, filtered and stored at −80° C. before use. Characteristics of viral stocks used for this study were 2.1×10^8 HIV-RNA genomes/ml (corresponding to 35 ng of p24 antigen) and 5,000 tissue culture infectious doses 50% per ml (TCID50/ml) as assessed by virus titration in other primary M/M cultures. The isolation and characterization of the clinical HIV-1 isolates L1S, L6S and L6S/PMEA has been reported (Thormar et al., Proc. Natl. Acad. Sci. USA 93:3283-3287, 1995; Van Laethem et al., AIDS 15:553-561, 2001). The HIV-1/L1S clinical isolate was derived from a patient not treated with NRTIs (nucleoside reverse transcriptase inhibitors) or ANPs and cultured without the selective pressure of any drugs. Therefore, it contained no obvious mutations that are characteristic for NRTI- or ANP-treated patients. HIV-1/L6S is a clinical isolate from a drug-treated individual cultured without the selective pressure of any drugs. As is characteristic for NRTI-treated patients, it contained S68G, K70T, V75I, F77L, F116Y and Q151M mutations in its RT. HIV-1/L6S/PMEA is the clinical isolate HIV-1/L6S that has been isolated after culturing the virus for 11 passages in the presence of increasing concentrations of PMEA (adefovir). It gained, in addition to the mutations mentioned for HIV-1/L6S, also the PMEA-characteristic K65R mutation in its reverse transcriptase (RT).
Human primary macrophages (M/M) were prepared and purified as follows. Peripheral blood mononuclear cells (PBMC), obtained from healthy HIV-1-negative donors were separated over a Ficoll gradient and seeded in 48-well plates at 1.8×10^6 cells/well in 1 ml of RPMI 1640 containing 20% heat-inactivated, endotoxin- and mycoplasma-free fetal bovine serum (Hyclone Laboratories, Inc., Logan, Utah), 4 mM L-glutamine (Life Technologies), 50 U/ml penicillin and 50 μg/ml streptomycin (Life Technologies) (hereinafter referred to as complete medium). Five days after plating and culturing the PBMC at 37° C. in a humidified atmosphere enriched with 5% CO2-adherent cells were carefully removed with repeated washings with warmed RPMI-1640, leaving a monolayer of adherent cells which were finally incubated in complete medium. […]

[2] = test system: CEM cells; assay: Incorporation of [3H]thymidine, [3H]uridine and [3H]leucine into CEM cell material; conditions: 200 μg/mL; 12 hour incubation period
Description: The incorporation of [methyl-^3H]thymidine, [^3H]uridine and [^3H]leucine into the methanol-insoluble CEM cell fraction was also measured in microplates. To each well were added 10^5 CEM cells, 5.9 pmol (0.25 μCi) of [methyl-^3H]thymidine, 38 pmol (1.0 μCi) of [^3H]uridine and 19 pmol (1.0 μCi) [4,5-^3H]leucine, and a given amount of the test compound. […] At the end of this incubation period, the contents of the wells (200 μl) were brought onto 25-mm glass fiber filters (type A/G; Gelman Instrument Co., Ann Arbor, Mich.) mounted on a Millipore 3025 sampling manifold apparatus. The filters were washed twice with cold PBS (phosphate-buffered saline), twice with cold 10% trichloroacetic acid, twice with cold 5% trichloroacetic acid, once with cold ethanol, and once with cold ether. The filters were then allowed to dry for 10 min at 60° C. and assayed for radioactivity in a toluene-based scintillant.

[3] = test system: HIV-1(IIIB); assay: HIV-1(IIIB)-induced cytopathicity in CEM cell cultures
From the text: as §1, with “The HIV-1/L1S clinical isolate was derived from a patient not treated with NRTIs (nucleoside reverse transcriptase inhibitors) or ANPs and cultured without the selective pressure of any drugs. Therefore, it contained no obvious mutations that are characteristic for NRTI- or ANP-treated patients. HIV-1/L6S is a clinical isolate from a drug-treated individual cultured without the selective pressure of any drugs. As is characteristic for NRTI-treated patients, it contained S68G, K70T, V75I, F77L, F116Y and Q151M mutations in its RT.” left out, “(adefovir).” for “(adefovir). It gained, in addition to the mutations mentioned for HIV-1/L6S, also the PMEA-characteristic K65R mutation in its reverse transcriptase (RT).”
In vitro antiviral assays. The activity against HIV-1- and HIV-2-induced cytopathicity was examined in MT-4 cell cultures at day 5 post infection and based on the determination of cell viability by trypan blue dye staining or in CEM cell cultures at day 4 to 5 post infection and based on the microscopical examination of virus-induced giant cell formation. HIV-1 and HIV-2 were added at 100 CCID50 to the cell cultures.

[4] = HIV-1 (IIIB) in CEM, no addition, Table 3
[5] = HIV-1 (IIIB) in CEM, Ade 100 μM
[6] = HIV-1 (IIIB) in CEM, Ado 400 μM
[7] = HIV-1 (IIIB) in CEM, dThd 10 μM
[8] = HIV-1(IIIB)-induced cytopathicity in CEM cell cultures, Table 1
[9] = giant cell formation, mean ±SD of 2 to 4 experiments, Table 2
[10] = Human immunodeficiency virus 1, CCRF-CEM, HIV-1 (IIIB) in CEM, no addition, Table 3, read-out: EC50 as such
[11] = Human immunodeficiency virus 1, CCRF-CEM, HIV-1 (IIIB) in CEM, Ade 100 μM, read-out: EC50 upon addition of Ade (100 μM)
[12] = Human immunodeficiency virus 1, CCRF-CEM, HIV-1 (IIIB) in CEM, Ado 400 μM, read-out: EC50 upon addition of Ado (400 μM)
[13] = Human immunodeficiency virus 1, CCRF-CEM, HIV-1 (IIIB) in CEM, Guo 10 μM, read-out: EC50 upon addition of Guo (10 μM)
[14] = Human immunodeficiency virus 1, CCRF-CEM, HIV-1 (IIIB) in CEM, dCyd 1 mM, read-out: EC50 upon addition of dCyd (1 mM)
[15] = Human immunodeficiency virus 1, CCRF-CEM, HIV-1 (IIIB) in CEM, dThd 10 μM, read-out: EC50 upon addition of dThd (10 μM)
[16] = Human immunodeficiency virus 1, CCRF-CEM, HIV-1(IIIB)-induced cytopathicity in CEM cell cultures, Table 1, read-out: EC50 HIV-1 (CEM)
[17] = Human immunodeficiency virus 1, IIIB, CCRF-CEM, giant cell formation, mean ±SD of 2 to 4 experiments, Table 2, read-out: EC50 HIV-1 (IIIB) (CEM)

SMILES	EC50 HIV-1 (BaL) (M/M) [1]	Inhibition of [3H]dThd, [3H]Urd and [3H]leu incorporation into TCA-insoluble CEM cell material (macromolecular synthesis) [2]	EC50 as such [3, 4]	EC50 upon addition of Ade (100 μM) [3, 5]	EC50 upon addition of Ado (400 μM) [3, 6]	EC50 upon addition of Guo (10 μM) ([3]; HIV-1 (IIIB) in CEM, Guo 10 μM)	EC50 upon addition of dCyd (1 mM) ([3]; HIV-1 (IIIB) in CEM, dCyd 1 mM)	EC50 upon addition of dThd (10 μM) [3, 7]	EC50 HIV-1 (CEM) [3, 8]	EC50 HIV-1 (IIIB) (CEM) [3, 9]	EC50 [1]	EC50 [3, 10]	EC50 [3, 11]	EC50 [3, 12]	EC50 [3, 13]	EC50 [3, 14]	EC50 [3, 15]	EC50 [3, 16]	EC50 [3, 17]	Antiretroviral (anti-HIV-1) activity in CEM cell cultures, in words [3]
C[C@H](Cn1cnc2c(N)ncnc21)OCP(=O)(O)O [(R)-PMPA, (R)-9-[(2-phosphonomethoxy)-propyl]adenine, reference compound]	3 ± 1 ng/mL (≈ 0.0104 µM)	not inhibitory	0.57 ± 0.26 µg/mL (≈ 1.98 µM)	1.6 ± 1.6 µg/mL	0.46 ± 0.23 µg/mL	0.43 ± 0.0 µg/mL	0.53 ± 0.26 µg/mL	0.43 ± 0.0 µg/mL	0.36 µg/mL (≈ 1.25 µM)	0.36 ± 0.24 µg/mL (≈ 1.25 µM)										
Nc1cc(OCCOCP(=O)(O)O)nc(N)n1 [Compound 1, 2,4-diamino-6-[2-(phosphonomethoxy)ethoxy]pyrimidine]		Neither compounds 1 nor 2, nor compound 11 were inhibitory									2 ± 1 ng/mL (≈ 0.00757 µM)	0.77 ± 0.25 µg/mL (≈ 2.91 µM)	0.26 ± 0.16 µg/mL (≈ 0.984 µM)	0.63 ± 0.29 µg/mL (≈ 2.38 µM)	0.65 ± 0.21 µg/mL (≈ 2.46 µM)	0.55 ± 0.35 µg/mL (≈ 2.08 µM)	0.35 ± 0.07 µg/mL (≈ 1.32 µM)	0.8 µg/mL (≈ 3.03 µM)	0.9 ± 0.4 µg/mL (≈ 3.41 µM)	
Nc1cc(SCCOCP(=O)(O)O)nc(N)n1 [Compound 2, 2,4-diamino-6-{[2-(phosphonomethoxy)ethyl]-sulfanyl}pyrimidine]		Neither compounds 1 nor 2, nor compound 11 were inhibitory										1.9 ± 0.75 µg/mL (≈ 6.78 µM)	3.3 ± 3.2 µg/mL (≈ 11.8 µM)	4.4 ± 2.8 µg/mL (≈ 15.7 µM)	1.9 ± 0.49 µg/mL (≈ 6.78 µM)	2.1 ± 1.7 µg/mL (≈ 7.49 µM)	1.4 ± 0.21 µg/mL (≈ 5 µM)	5.5 µg/mL (≈ 19.6 µM)	4.6 ± 3.1 µg/mL (≈ 16.4 µM)	
C[C@H](COc1cc(N)nc(N)n1)OCP(=O)(O)O [Compound 11, 2,4-diamino-6-(R)-[2-(phosphonomethoxy)propoxy]pyrimidine]	5 ± 0 ng/mL (≈ 0.018 µM)	Neither compounds 1 nor 2, nor compound 11 were inhibitory	1.2 ± 0.25 µg/mL (≈ 4.31 µM)	0.35 ± 0.17 µg/mL	1.5 ± 0.70 µg/mL	0.77 ± 0.38 µg/mL	1.1 ± 0.51 µg/mL	0.83 ± 0.35 µg/mL	1.8 µg/mL (≈ 6.47 µM)	1.9 ± 0.5 µg/mL (≈ 6.83 µM)										markedly more inhibitory
Nc1ncnc2c1ncn2CCOCP(=O)(O)O [PMEA, 9-[(2-phosphono-methoxy)ethyl]adenine, reference compound]		not inhibitory									6 ng/mL (≈ 0.022 µM)	0.94 ± 0.24 µg/mL (≈ 3.44 µM)	1.9 ± 1.3 µg/mL (≈ 6.95 µM)	1.6 ± 0.4 µg/mL (≈ 5.86 µM)	1 ± 0.8 µg/mL (≈ 3.66 µM)	2.1 ± 0.19 µg/mL (≈ 7.69 µM)	1.4 ± 0.4 µg/mL (≈ 5.12 µM)	0.96 µg/mL (≈ 3.51 µM)	0.96 ± 0.24 µg/mL (≈ 3.51 µM)	
